Assay results from PMC7503713, “GANT61 Reduces Hedgehog Molecule (GLI1) Expression and Promotes Apoptosis in Metastatic Oral Squamous Cell Carcinoma Cells” (International Journal of Molecular Sciences, 2020).
Values joined by “and” are separate entries in the source; they are usually repeats but may differ in a detail not shown here. Equal values may be shown once.

Tests used:
Type in all cases: cell-based, human
[1] = system: CAF 1; experiment: alamarBlue cytotoxicity assay, cancer-associated fibroblasts CAF 1; conditions: CAF 1, alamarBlue, 72 h of incubation
Protocol: (§1) Two cancer-associated fibroblast populations (CAF1 and CAF2) were obtained as described by Sobral et al. (2011), from fragments of squamous cell carcinoma of the tongue that were removed from patients seen at the UNICAMP School of Dentistry in Piracicaba, São Paulo, Brazil.
(§2) Specimens were washed with PBS, fragmented, and placed in 25 cm^2 cell culture flasks containing 1 mL of DMEM medium supplemented with 10% FBS and an antibiotic, and then maintained in an incubator, at 37 °C, under 5% CO2. Cell growth was monitored daily, and the medium was replaced every 2–3 days. […] Type I collagen production as assessed by ELISA was also used as a marker of myofibroblast activity. Both CAF1 and CAF2 primary populations were maintained for a maximum of 12 passages, with CAF phenotype maintenance evaluated through immunocytochemical staining for the α-SMA antibody after each two passages. […]
(§3) To assess the cytotoxicity of the GLI inhibitor GANT61 (Sigma-Aldrich, St. Louis, MO, USA) in tumor and non-tumor cell lines, an alamarBlue assay (Sigma-Aldrich Chemical Co, St. Louis, MO, USA) was performed after 72 h of exposure to the inhibitor, as described by Ahmed et al., 1994 [46]. […] Absorbance was measured at 570 nm (reduced) and 595 nm (oxidized) wavelengths, using a Spectramax 190 plate reader (Molecular Devices; Sunnyvale, CA, USA). […]

[2] = system: HSC3 cells; experiment: Morphological analysis by flow cytometry (FSC/SSC)
Protocol: To study the effects of GANT61 on HSC3 cell viability, cycle, and death patterns, 4 mL of cellular solution (containing 0.7 × 10^5 cells/mL) was placed on 6-well plates and incubated overnight, to allow adhesion. […] For cell cycle analysis, the effects of GANT61 on HSC3 cells were also evaluated after 12 h of treatment. Negative controls were treated with the vehicle (0.2% DMSO) used to dilute the GLI inhibitor, and 5-fluorouracil (5-FU, 17 μM) was used as a positive control. All experiments were carried out in duplicate and repeated no less than three times. Cell viability was determined by the trypan blue exclusion method, in which 90 μL aliquots were collected at several incubation periods, stained with 10 μL trypan blue, and counted in a Neubauer chamber, under optical microscopy, at 20× magnification (Olympus CX41 Olympus, Tokyo, Japan).
Morphological analysis of HSC3 cells was performed by flow cytometry, using FSC (size/volume) and SSC (granularity) parameters (FACSDiva). Cells were acquired (10,000 events/sample) and analyzed on a BD LSRFortessa flow cytometer, using the BD FACSDiva software version 6.2 (Becton Dickinson Biosciences, San José, CA, USA). Cellular debris was omitted from our analyses.

[3] = system: HepG2; experiment: alamarBlue cytotoxicity assay, HepG2; conditions: 72 h of incubation
Protocol: (§4) To assess the cytotoxicity of the GLI inhibitor GANT61 (Sigma-Aldrich, St. Louis, MO, USA) in tumor and non-tumor cell lines, an alamarBlue assay (Sigma-Aldrich Chemical Co, St. Louis, MO, USA) was performed after 72 h of exposure to the inhibitor, as described by Ahmed et al., 1994 [46]. Cells were distributed on 96-well plates at a density of 7 × 10^4 cells/mL for adhered cells, and 3 × 10^5 cells/mL for cells in suspension. All tested compounds were dissolved in DMSO, added to wells containing 100 µL of cells in complete medium, and then incubated for 72 h. Eight concentrations of GANT61 (0.19 to 50 µg/mL), Doxorubicin (Laboratory IMA S.A.I.C., Buenos Aires, Argentina), and 5-Fluorouracil (5-FU, Sigma-Aldrich, St. Louis, MO, USA), both used as positive controls at concentrations ranging from 0.03 to 5 µg/mL, were added to respective wells. Cells treated with the vehicle (0.5% DMSO) used to dilute the tested compounds were used as negative controls. Before the end of the incubation period (4 h for cell lines and 24 h for PBMCs), 20 µL of alamarBlue stock solution (resazurin, Sigma-Aldrich, St. Louis, MO, USA) was added to each well. Absorbance was measured at 570 nm (reduced) and 595 nm (oxidized) wavelengths, using a Spectramax 190 plate reader (Molecular Devices; Sunnyvale, CA, USA).
(§5) Statistical analyses were performed, using GraphPad Prism v. 6.03 (GraphPad Software, Inc., San Diego, USA). Data were analyzed according to distribution along the normal Gaussian curve. IC50 values were obtained through non-linear regression, using results from three independent experiments carried out in duplicate. Differences between groups resulting from in vitro assays were evaluated by ANOVA (analysis of variance) testing, followed by the Student–Newman–Keuls test. This study considered a level of significance, corresponding to alpha (α) or “p” value, when results were less than or equal to 5%.

[4] = system: HCT-116; experiment: alamarBlue cytotoxicity assay, HCT-116; conditions: HCT-116, alamarBlue, 72 h of incubation
Protocol: as §4, §5

[5] = system: CAF 2; experiment: alamarBlue cytotoxicity assay, cancer-associated fibroblasts CAF 2; conditions: CAF 2, alamarBlue, 72 h of incubation
Protocol: as §1, §2, §3

[6] = system: HSC3; experiment: alamarBlue cytotoxicity assay, HSC3; conditions: 72 h of incubation
Protocol: For cytotoxicity assessments, this study primarily focused on the highly metastatic HSC3 OSCC cell line (JCRB Cell Bank, Osaka, Japan) and employed other histological tumor cell types and non-tumor cells (Supplementary Table S1). HSC3 cells were placed in flasks ([…], 250 mL volume) containing DMEM medium (Gibco, Lif Technologies, Gaithesburg, MD, USA) supplemented with 10% fetal bovine serum (FBS, Gibco, Life Technologies, Gaithesburg, MD, USA) 1% penicillin, 1% streptomycin (Gibco, Life Technologies, Gaithesburg, MD, USA), and 0.8% hydrocortisone (Sigma-Aldrich, St. Louis, MO, USA). Cells were cultured and kept in incubators, under an atmosphere of 5% CO2 at 37 °C. Trypsinization was used to dissociate cells when cell growth reached the necessary confluence, i.e., 70 to 80% of the total culture flask volume. Cell cultures were tested periodically for mycoplasma contamination and evaluated by using a luminometer, according to the MycoAlert^TM PLUS protocol (Lonza, Walkersville Inc., Walkersville, MD, USA, 2012).
as §4
(§6) Statistical analyses were performed, using GraphPad Prism v. 6.03 (GraphPad Software, Inc., San Diego, USA). Data were analyzed according to distribution along the normal Gaussian curve. […] Differences between groups resulting from in vitro assays were evaluated by ANOVA (analysis of variance) testing, followed by the Student–Newman–Keuls test. […]

[7] = system: PBMC; experiment: alamarBlue cytotoxicity assay, PBMC; conditions: 72 h of incubation
Protocol: Human peripheral blood mononuclear cells (PBMC) lymphocytes and monocytes) were obtained from the peripheral blood of healthy, non-smoking volunteers aged 25–35 years. None of the volunteers had used any type of drug or medication for at least 15 days prior to collection. Blood collection (5 mL) was performed in heparinized vials by trained professionals at the Laboratory of Tissue Engineering and Immunopharmacology (LETI, IGM-FIOCRUZ, Salvador, Brazil), using sterile disposable syringes. PBMCs were isolated by a standard protocol described by Dias et al. (2018). The institutional review board of the Gonçalo Moniz Institution, Oswaldo Cruz Foundation (IGM-FIOCRUZ), in Salvador, Bahia, Brazil, approved all experimental protocols (No.031019/2013). All participants provided written informed consent prior to participation in the study.
To assess the cytotoxicity of the GLI inhibitor GANT61 (Sigma-Aldrich, St. Louis, MO, USA) in tumor and non-tumor cell lines, an alamarBlue assay (Sigma-Aldrich Chemical Co, St. Louis, MO, USA) was performed after 72 h of exposure to the inhibitor, as described by Ahmed et al., 1994 [46]. Cells were distributed on 96-well plates at a density of 7 × 10^4 cells/mL for adhered cells, and 3 × 10^5 cells/mL for cells in suspension. All tested compounds were dissolved in DMSO, added to wells containing 100 µL of cells in complete medium, and then incubated for 72 h. […] Absorbance was measured at 570 nm (reduced) and 595 nm (oxidized) wavelengths, using a Spectramax 190 plate reader (Molecular Devices; Sunnyvale, CA, USA).
as §6, with “6.03 (GraphPad Software, Inc., San Diego, USA).” left out

Compound	IC50 [1] [µM]	cell morphology (FSC/SSC) ([2]; HSC3, 18 and 36 µM, 24, 48 and 72 h)	IC50 [3] [µM]	IC50 [4] [µM]	IC50 [5] [µM]	IC50 [6]	IC50 [7] [µM]	IC50 ([1]; Homo sapiens, Fibroblast) [µM]	cell morphology (FSC/SSC) ([2]; HSC3, 17 µM)	IC50 ([3]; Homo sapiens) [µM]	IC50 ([4]; Homo sapiens) [µM]	IC50 ([5]; Homo sapiens, Fibroblast) [µM]	IC50 ([6]; Homo sapiens, HSC-3, 72 h) [µM]	IC50 ([7]; Homo sapiens) [µM]
CN(C)c1ccccc1CN1CCCN(Cc2ccccc2N(C)C)C1c1ccncc1 [GANT61]	3.67	cell shrinkage	> 116	> 116	71.5	36 µM and 35.9 µM	87.5	–	–	–	–	–	–	–
O=c1[nH]cc(F)c(=O)[nH]1 [5-FU, 5-fluorouracil]	–	–	–	–	–	16.8 µM	–	> 192	changes consistent with apoptotic death	1.3	4.07	> 192	17	> 192
